Measurements from the NIST ThermoML archive (doi:10.1021/je700254t).
± gives the expanded uncertainty stated by the source.

Test: xn = mol fraction of the nth substance listed
Conditions: 101.3 kPa, Liquid

c1ccccc1 [benzene] + CCCO
mass density [kg/m3]
Conditions | 288.15 K | 293.15 K | 298.15 K | 303.15 K | 308.15 K | 313.15 K
x2 = 0 | 884.246 ± 0.16 | 878.918 ± 0.17 | 873.582 ± 0.17 | 868.233 ± 0.17 | 862.871 ± 0.18 | 857.498 ± 0.18
x2 = 0.022 | 882.511 ± 0.16 | 877.177 ± 0.17 | 871.937 ± 0.17 | 866.489 ± 0.18 | 861.124 ± 0.18 | 855.764 ± 0.18
x2 = 0.0557 | 880.03 ± 0.17 | 874.714 ± 0.17 | 869.383 ± 0.17 | 864.034 ± 0.18 | 858.669 ± 0.18 | 853.296 ± 0.19
x2 = 0.0984 | 876.959 ± 0.17 | 871.673 ± 0.17 | 866.369 ± 0.18 | 861.047 ± 0.18 | 855.699 ± 0.18 | 850.343 ± 0.19
x2 = 0.1632 | 872.435 ± 0.17 | 867.203 ± 0.18 | 861.955 ± 0.18 | 856.682 ± 0.18 | 851.38 ± 0.19 | 846.063 ± 0.19
x2 = 0.2186 | 868.541 ± 0.18 | 863.367 ± 0.18 | 858.172 ± 0.18 | 852.95 ± 0.19 | 847.699 ± 0.19 | 842.427 ± 0.2
x2 = 0.2385 | 867.148 ± 0.18 | 861.999 ± 0.18 | 856.826 ± 0.19 | 851.625 ± 0.19 | 846.396 ± 0.19 | 841.156 ± 0.2
x2 = 0.3046 | 862.546 ± 0.18 | 857.468 ± 0.19 | 852.368 ± 0.19 | 847.234 ± 0.19 | 842.067 ± 0.2 | 836.875 ± 0.2
x2 = 0.3993 | 855.836 ± 0.19 | 850.881 ± 0.19 | 845.896 ± 0.2 | 840.877 ± 0.2 | 835.823 ± 0.2 | 830.744 ± 0.21
x2 = 0.4505 | 852.174 ± 0.19 | 847.288 ± 0.2 | 842.37 ± 0.2 | 837.417 ± 0.2 | 832.428 ± 0.21 | 827.425 ± 0.21
x2 = 0.5023 | 848.393 ± 0.2 | 843.581 ± 0.2 | 838.736 ± 0.21 | 833.856 ± 0.21 | 828.935 ± 0.21 | 823.986 ± 0.22
x2 = 0.6035 | 840.846 ± 0.21 | 836.186 ± 0.21 | 831.492 ± 0.21 | 826.762 ± 0.22 | 821.989 ± 0.22 | 817.183 ± 0.23
x2 = 0.66 | 836.494 ± 0.21 | 831.916 ± 0.22 | 827.312 ± 0.22 | 822.69 ± 0.22 | 817.981 ± 0.23 | 813.261 ± 0.23
x2 = 0.7035 | 833.115 ± 0.22 | 828.615 ± 0.22 | 824.081 ± 0.22 | 819.512 ± 0.23 | 814.9 ± 0.23 | 810.256 ± 0.23
x2 = 0.7453 | 829.801 ± 0.22 | 825.366 ± 0.22 | 820.902 ± 0.23 | 816.4 ± 0.23 | 811.856 ± 0.23 | 807.285 ± 0.24
x2 = 0.8016 | 825.211 ± 0.23 | 820.875 ± 0.23 | 816.507 ± 0.23 | 812.105 ± 0.24 | 807.61 ± 0.24 | 803.184 ± 0.24
x2 = 0.8447 | 821.474 ± 0.23 | 817.209 ± 0.23 | 812.998 ± 0.24 | 808.593 ± 0.24 | 804.229 ± 0.24 | 799.833 ± 0.25
x2 = 0.8981 | 816.954 ± 0.24 | 812.786 ± 0.24 | 808.589 ± 0.24 | 804.36 ± 0.24 | 800.093 ± 0.25 | 795.804 ± 0.25
x2 = 0.9495 | 812.375 ± 0.24 | 808.313 ± 0.24 | 804.141 ± 0.25 | 800.008 ± 0.25 | 795.838 ± 0.25 | 791.644 ± 0.26

CCCO [propan-1-ol] + ClC(Cl)Cl
x1 = 1
Conditions | mass density [kg/m3]
288.15 K | 807.69 ± 0.25
293.15 K | 803.703 ± 0.25
298.15 K | 799.692 ± 0.25
303.15 K | 795.65 ± 0.26
308.15 K | 791.576 ± 0.26
313.15 K | 787.466 ± 0.26
